The record followed here is patent US20130116241A1, “NOVEL INHIBITOR COMPOUNDS OF PHOSPHODIESTERASE TYPE 10A” (AbbVie Inc., priority 2011, published 2013).

The target in the experiment is human PDE10A (UniProt Q9Y233). Briefly: Measurement of PDE activity (recombinant enzyme, HTRF cAMP kit). The experiment is classed as biochemical. Conditions: Table 1, substrate 20 nM for PDE10, 60 minutes at 29 C, read-out: IC50. How it is done:
The recombinant PDE proteins are used in in vitro enzymatic reaction for measurement of PDE activity. These recombinant proteins, including PDE10A (human, rat and mouse PDE10) and isoforms of PDEs 1, 3, 4, and 5, were purchased from commercial vendor BPS Bioscience. The enzymatic activity of PDEs was determined by cAMP measurement kit from CisBio (IBA) using HTRF technology.
The PDE enzymatic reaction was carried out in assay buffer (20 mM Tris-HCl pH7.5, 10 mM MgCl2, 0.1% bovine serum albumin) containing enzyme and substrate. The PDE enzymes concentration ranged from 10 pM-250 pM, depending on each enzyme's specific activity. The substrate cyclic nucleotide (cAMP or cGMP) concentration used in the assay was 20 nM for PDE10, and 100 nM for other PDEs. The inhibitory effect of compound was determined by incubating various concentration of inhibitor in the enzymatic assay. Typically, compound was serial diluted in DMSO then further diluted in assay buffer. Next, the compound at varying concentration was mixed with PDE enzyme. The reaction was initiated by addition of cyclic nucleotide substrate, and incubated for 60 minutes at 29 C. The reaction was stopped by addition of lysis buffer from assay kit. The cAMP-d2 and anti-cAMP cryptate in the lysis buffer detected the level of cAMP left from the PDE hydrolysis reaction. The PDE activity is reversely correlated with the amount of cAMP left in the reaction and can be converted to the percent activity of an uninhibited control (100%). Thus, IC50 value of inhibitor can be obtained by plotting inhibitor concentration against PDE activity at that concentration.

Sequence of human PDE10A (Q9Y233 290-1055 limits assumed): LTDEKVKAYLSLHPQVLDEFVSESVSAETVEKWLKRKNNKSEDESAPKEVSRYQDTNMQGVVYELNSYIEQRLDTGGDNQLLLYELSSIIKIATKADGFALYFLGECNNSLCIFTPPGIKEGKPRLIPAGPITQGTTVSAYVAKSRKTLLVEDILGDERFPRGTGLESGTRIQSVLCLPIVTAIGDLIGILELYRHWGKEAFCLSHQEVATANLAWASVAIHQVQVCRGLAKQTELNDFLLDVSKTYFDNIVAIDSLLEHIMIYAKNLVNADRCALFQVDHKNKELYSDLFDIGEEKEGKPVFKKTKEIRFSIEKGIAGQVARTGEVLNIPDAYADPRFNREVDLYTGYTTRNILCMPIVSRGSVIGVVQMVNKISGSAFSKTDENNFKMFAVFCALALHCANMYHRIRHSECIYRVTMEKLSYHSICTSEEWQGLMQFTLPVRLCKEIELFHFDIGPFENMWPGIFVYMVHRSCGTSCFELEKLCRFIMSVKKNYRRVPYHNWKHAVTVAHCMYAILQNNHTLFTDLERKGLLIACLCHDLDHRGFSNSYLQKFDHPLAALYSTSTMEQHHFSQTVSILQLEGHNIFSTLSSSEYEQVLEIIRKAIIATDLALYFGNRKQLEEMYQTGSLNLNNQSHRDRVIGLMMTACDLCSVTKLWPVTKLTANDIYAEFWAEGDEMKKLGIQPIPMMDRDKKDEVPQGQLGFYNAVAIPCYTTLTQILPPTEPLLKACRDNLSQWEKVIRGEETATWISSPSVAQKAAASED

One may read the IC50 as the concentration at which inhibition is half-maximal. With `COc1ncccc1-c1csc2cnn(CCc3ccc4ccccc4n3)c(=O)c12` [Example 38, 3-(2-methoxypyridin-3-yl)-5-[2-(quinolin-2-yl)ethyl]thieno[2,3-d]pyridazin-4(5H)-one], the IC50 was in the range of 200 to 500 nM.

For the molecule `O=c1c2c(-c3cccnc3)csc2cnn1CCc1ccc2ccccc2n1` [Example 39, 3-(pyridin-3-yl)-5-[2-(quinolin-2-yl)ethyl]thieno[2,3-d]pyridazin-4(5H)-one], the IC50 is less than 100 nM.

`O=c1c2c(-c3ccoc3)csc2cnn1CCc1ccc2ccccc2n1` [Example 41, 3-(furan-3-yl)-5-[2-(quinolin-2-yl)ethyl]thieno[2,3-d]pyridazin-4(5H)-one]: the IC50 was less than 100 nM.

In the case of `O=c1c2c(-c3cccc4cnccc34)csc2cnn1CCc1ccc2ccccc2n1` [Example 44, 3-(isoquinolin-5-yl)-5-[2-(quinolin-2-yl)ethyl]thieno[2,3-d]pyridazin-4(5H)-one], the IC50 lay in the range of 200 to 500 nM.

With `O=c1c2c(-c3cccc4[nH]ccc34)csc2cnn1CCc1ccc2ccccc2n1` [Example 45, 3-(1H-indol-4-yl)-5-(2-quinolin-2-yl-ethyl)-5H-thieno[2,3-d]pyridazin-4-one], the IC50 lay in the range of 100 to 200 nM.

Take `O=c1c2c(-c3ccc4c(c3)CCO4)csc2cnn1CCc1ccc2ccccc2n1` [Example 46, 3-(2,3-dihydrobenzofuran-5-yl)-5-(2-quinolin-2-yl-ethyl)-5H-thieno[2,3-d]pyridazin-4-one]: the IC50 was less than 100 nM.

On to `O=c1c2c(-c3cccc4ncccc34)csc2cnn1CCc1ccc2ccccc2n1` [Example 47, 3-(quinolin-5-yl)-5-[2-(quinolin-2-yl)ethyl]thieno[2,3-d]pyridazin-4(5H)-one], for which the half-inhibitory concentration (IC50) was 100 to 200 nM.

With `Cc1noc(C)c1-c1csc2cnn(CCc3ccc4ccccc4n3)c(=O)c12` [Example 48, 3-(3,5-dimethyl-1,2-oxazol-4-yl)-5-[2-(quinolin-2-yl)ethyl]thieno[2,3-d]pyridazin-4(5H)-one], the IC50 was less than 100 nM.

Turning to `COc1ccc(-c2csc3cnn(CCc4ccc5ccccc5n4)c(=O)c23)cn1` [Example 49, 3-(6-methoxypyridin-3-yl)-5-[2-(quinolin-2-yl)ethyl]thieno[2,3-d]pyridazin-4(5H)-one], the IC50 is 100 to 200 nM.

`O=c1c2c(-c3ccc4c(c3)OCCO4)csc2cnn1CCc1ccc2ccccc2n1` [Example 50, 3-(2,3-dihydro-1,4-benzodioxin-6-yl)-5-[2-(quinolin-2-yl)ethyl]thieno[2,3-d]pyridazin-4(5H)-one]: the IC50 is 200 to 500 nM.

In the case of `Cc1cc(-c2csc3cnn(CCc4ccc5ccccc5n4)c(=O)c23)ccn1` [Example 51, 3-(2-methylpyridin-4-yl)-5-[2-(quinolin-2-yl)ethyl]thieno[2,3-d]pyridazin-4(5H)-one], the IC50 is less than 100 nM.

In the case of `COc1cncc(-c2csc3cnn(CCc4ccc5ccccc5n4)c(=O)c23)c1` [Example 52, 3-(5-methoxypyridin-3-yl)-5-[2-(quinolin-2-yl)ethyl]thieno[2,3-d]pyridazin-4(5H)-one], the IC50 was in the range of 100 to 200 nM.

For the molecule `O=c1c2c(-c3ccc4c(c3)OCO4)csc2cnn1CCc1ccc2ccccc2n1` [Example 54, 3-(1,3-benzodioxol-5-yl)-5-[2-(quinolin-2-yl)ethyl]thieno[2,3-d]pyridazin-4(5H)-one], the IC50 fell in the range of 100 to 200 nM.

As for `O=c1c2c(-c3ccc4ncccc4c3)csc2cnn1CCc1ccc2ccccc2n1` [Example 55, 3-(quinolin-6-yl)-5-[2-(quinolin-2-yl)ethyl]thieno[2,3-d]pyridazin-4(5H)-one], the IC50 was less than 100 nM.

For `Cn1cc(-c2csc3cnn(CCc4ccc5ccccc5n4)c(=O)c23)cn1` [Example 56, 3-(1-methyl-1H-pyrazol-4-yl)-5-[2-(quinolin-2-yl)ethyl]thieno[2,3-d]pyridazin-4(5H)-one], the 50% inhibitory concentration (IC50) was less than 100 nM.

With `CC(C)Cn1cc(-c2csc3cnn(CCc4ccc5ccccc5n4)c(=O)c23)cn1` [Example 57, 3-[1-(2-methylpropyl)-1H-pyrazol-4-yl]-5-[2-(quinolin-2-yl)ethyl]thieno[2,3-d]pyridazin-4(5H)-one], the IC50 is 200 to 500 nM.

`COc1ncc(-c2csc3cnn(CCc4ccc5ccccc5n4)c(=O)c23)cn1` [Example 59, 3-(2-methoxypyrimidin-5-yl)-5-[2-(quinolin-2-yl)ethyl]thieno[2,3-d]pyridazin-4(5H)-one]: the IC50 was less than 100 nM.

With `O=c1c2c(-c3ccc(F)c(F)c3F)csc2cnn1CCc1ccc2ccccc2n1` [Example 60, 5-[2-(quinolin-2-yl)ethyl]-3-(2,3,4-trifluorophenyl)thieno[2,3-d]pyridazin-4(5H)-one], the IC50 lay in the range of 200 to 500 nM.

In the case of `Cc1cc(F)ccc1-c1csc2cnn(CCc3ccc4ccccc4n3)c(=O)c12` [Example 62, 3-(4-fluoro-2-methylphenyl)-5-[2-(quinolin-2-yl)ethyl]thieno[2,3-d]pyridazin-4(5H)-one], the IC50 fell in the range of 200 to 500 nM.

Take `O=c1c2c(-c3ccc(F)cc3Cl)csc2cnn1CCc1ccc2ccccc2n1` [Example 64, 3-(2-chloro-4-fluorophenyl)-5-[2-(quinolin-2-yl)ethyl]thieno[2,3-d]pyridazin-4(5H)-one]: the IC50 lay within 200 to 500 nM.

For the molecule `O=c1c2c(-c3ccc(F)cc3F)csc2cnn1CCc1ccc2ccccc2n1` [Example 67, 3-(2,4-difluorophenyl)-5-[2-(quinolin-2-yl)ethyl]thieno[2,3-d]pyridazin-4(5H)-one], the IC50 was 100 to 200 nM.

Turning to `O=c1c2c(-c3cccc(F)c3F)csc2cnn1CCc1ccc2ccccc2n1` [Example 70, 3-(2,3-difluorophenyl)-5-[2-(quinolin-2-yl)ethyl]thieno[2,3-d]pyridazin-4(5H)-one], the IC50 is 100 to 200 nM.

`COc1ccc(-c2csc3cnn(CCc4ccc5ccccc5n4)c(=O)c23)cc1OC` [Example 71, 3-(3,4-dimethoxyphenyl)-5-[2-(quinolin-2-yl)ethyl]thieno[2,3-d]pyridazin-4(5H)-one]: the IC50 is 200 to 500 nM.

On to `O=c1c2c(-c3ccc(F)c(F)c3)csc2cnn1CCc1ccc2ccccc2n1` [Example 72, 3-(3,4-difluorophenyl)-5-[2-(quinolin-2-yl)ethyl]thieno[2,3-d]pyridazin-4(5H)-one], for which the concentration for half-maximal inhibition (IC50) lay within 100 to 200 nM.

As for `O=c1c2c(-c3cc(F)ccc3F)csc2cnn1CCc1ccc2ccccc2n1` [Example 76, 3-(2,5-difluorophenyl)-5-[2-(quinolin-2-yl)ethyl]thieno[2,3-d]pyridazin-4(5H)-one], the half-maximal inhibitory concentration (IC50) was in the range of 100 to 200 nM.

As for `COc1ccc(-c2csc3cnn(CCc4ccc5ccccc5n4)c(=O)c23)cc1F` [Example 78, 3-(3-fluoro-4-methoxyphenyl)-5-[2-(quinolin-2-yl)ethyl]thieno[2,3-d]pyridazin-4(5H)-one], the IC50 lay within 200 to 500 nM.

Regarding `COc1cccc(-c2csc3cnn(CCc4ccc5ccccc5n4)c(=O)c23)c1F` [Example 79, 3-(2-fluoro-3-methoxyphenyl)-5-[2-(quinolin-2-yl)ethyl]thieno[2,3-d]pyridazin-4(5H)-one], the IC50 was in the range of 200 to 500 nM.

Take `O=c1c2c(-c3cc(F)cc(F)c3)csc2cnn1CCc1ccc2ccccc2n1` [Example 80, 3-(3,5-difluorophenyl)-5-[2-(quinolin-2-yl)ethyl]thieno[2,3-d]pyridazin-4(5H)-one]: the IC50 lay in the range of 100 to 200 nM.

With `O=c1c2c(-c3ccccc3)csc2cnn1CCc1ccc2ccccc2n1` [Example 85, 3-phenyl-5-[2-(quinolin-2-yl)ethyl]thieno[2,3-d]pyridazin-4(5H)-one], the IC50 was 100 to 200 nM.

As for `O=c1c2c(-c3ccc4[nH]ncc4c3)csc2cnn1CCc1ccc2ccccc2n1` [Example 87, 3-(1H-indazol-5-yl)-5-[2-(quinolin-2-yl)ethyl]thieno[2,3-d]pyridazin-4(5H)-one], the concentration for half-maximal inhibition (IC50) is less than 100 nM.

As to `Cn1nccc1-c1csc2cnn(CCc3ccc4ccccc4n3)c(=O)c12` [Example 88, 3-(1-methyl-1H-pyrazol-5-yl)-5-[2-(quinolin-2-yl)ethyl]thieno[2,3-d]pyridazin-4(5H)-one], the half-inhibitory concentration (IC50) is less than 100 nM.

Take `Cc1ccc(-c2csc3cnn(CCc4ccc5ccccc5n4)c(=O)c23)c(F)c1` [Example 90, 3-(2-fluoro-4-methylphenyl)-5-[2-(quinolin-2-yl)ethyl]thieno[2,3-d]pyridazin-4(5H)-one]: the IC50 is 200 to 500 nM.

Consider `COc1ccc(F)c(-c2csc3cnn(CCc4ccc5ccccc5n4)c(=O)c23)c1` [Example 91, 3-(2-fluoro-5-methoxyphenyl)-5-[2-(quinolin-2-yl)ethyl]thieno[2,3-d]pyridazin-4(5H)-one], for which the IC50 was in the range of 100 to 200 nM.

As to `O=c1c2c(-c3ccncc3)csc2cnn1CCc1ccc2cc(F)ccc2n1` [Example 93, 5-[2-(6-Fluoroquinolin-2-yl)ethyl]-3-(pyridin-4-yl)thieno[2,3-d]pyridazin-4(5H)-one], the IC50 is less than 100 nM.

Consider `O=c1c2c(-c3ccncc3)csc2cnn1CC(F)(F)c1ccc2ccccc2n1` [Example 94, 5-[2,2-Difluoro-2-(quinolin-2-yl)ethyl]-3-(pyridin-4-yl)thieno[2,3-d]pyridazin-4(5H)-one], for which the IC50 is less than 100 nM.
